Read-outs that look alike come from different tables or passages of the source.
Assays:
[1] = Comparison of solubilities (saturated concentration by HPLC); format: physicochemical; settings: for solubility thermodynamic at 16 h: thermodynamic from solid
Method: The thus-obtained ursolic acid phosphate was compared to ursolic acid (control) on their solubilities. The mixture was stirred for 16 hours and was passed through a 0.45-μm filter. After that, concentration measurement was performed by HPLC.

[2] = tested on: Hartley white guinea pigs; assay: Guinea pig maximization test (skin sensitivity); format: in vivo; settings: challenge 5%, 0.5%, Draize criteria
Method: A guinea pig maximization test was performed using ten Hartley white guinea pigs to examine the presence or absence of the skin sensitivity of ursolic acid phosphate to the guinea pigs. An emulsified product containing distilled water and Freund's complete adjuvant (FCA) in equal volumes, a test substance (dissolved in olive oil, 5%), and a mixture including a test substance and FCA in equal volumes were separately injected intracutaneously to five guinea pigs in two sites with 0.1 mL, respectively. The next day, the hair of the intracutaneous injection sites was shaved, and a mixture of 10% sodium lauryl sulfate/petrolatum was applied thereto. The day after that, 0.1 ml of 5% ursolic acid phosphate (dissolved in olive oil) was applied with a patch for 48 hours to the shaved sites to complete induction of sensitization. After completion of induction of sensitization, a 10-day rest period was provided. After completion of the period, the hair in back untreated sites was shaved. Then, each of 0.1 ml of 5%, 0.5%, and 0% ursolic acid phosphate (dissolved in olive oil) was applied with a patch for 24 hours to respective three sites to […]. Thirty minutes and 24 hours after patch removal, skin reactions were observed. […]

| Saturated concentration ([1]; Solvent 8% EtOH/0.1 M phosphate Buffer (pH7.0), stirred 16 hours, 0.45-μm filter, HPLC) [µg/mL] | Saturated concentration ([1]; Solvent 8% EtOH/0.1 M phosphate Buffer (pH9), stirred 16 hours, 0.45-μm filter, HPLC) [µg/mL] | Saturated concentration ([1]; Solvent 8% EtOH/DW, stirred 16 hours, 0.45-μm filter, HPLC) [µg/mL] | Saturated concentration ([1]; Solvent EtOH, stirred 16 hours, 0.45-μm filter, HPLC) [µg/mL] | solubility thermodynamic at 16 h ([1]; pH 9, aqueous buffer, Solvent 0.1 M phosphate Buffer (pH9), stirred 16 hours, 0.45-μm filter, HPLC, read-out: Saturated concentration) [mg/mL] | solubility thermodynamic at 16 h ([1]; water, Solvent DW, stirred 16 hours, 0.45-μm filter, HPLC, read-out: Saturated concentration) [mg/mL] | solubility compared to that of ursolic acid [1] | Saturated concentration ([1]; 16 h, pH 7) [µg/mL] | Saturated concentration ([1]; 16 h, pH 9) [µg/mL] | solubility thermodynamic at 16 h ([1]; pH 9, aqueous buffer) [mg/mL] | solubility thermodynamic at 16 h ([1]; water) [mg/mL] | skin reactions, sample-administered group versus control group ([2]; 0% in olive oil, patch 24 hours) | SMILES | sensitization to skin ([2]; induction with 5% in olive oil, 0% patch 24 hours, observed 30 minutes and 24 hours after patch removal) |
| --- | --- | --- | --- | --- | --- | --- | --- | --- | --- | --- | --- | --- | --- |
| <1 | <1 | <1 | <1 | < 0.001 | < 0.001 | – | – | – | – | – | – | C[C@H]1[C@H](C)CC[C@]2(C(=O)O)CC[C@]3(C)C(=CC[C@@H]4[C@@]5(C)CC[C@H](O)C(C)(C)[C@@H]5CC[C@]43C)[C@H]12 [ursolic acid, reference compound] | – |
| – | – | – | – | – | – | improved | 31.1 | 7.5 | 0.12 | 0.0201 | no differences | C[C@H]1[C@H](C)CC[C@]2(C(=O)O)CC[C@]3(C)C(=CC[C@@H]4[C@@]5(C)CCC(OP(=O)(O)O)C(C)(C)[C@@H]5CC[C@]43C)[C@H]12 (stereo partly shown) [ursolic acid phosphate, Ursolic acid phosphate] | not observed |

Reference: patent US7718635B2, “Triterpenic acid derivative and preparation for external application for skin comprising the same” (Pola Chemical Industries Inc., priority 2005, dated 2010)
